Data taken from patent US20030194409A1, “Conjugate heat shock protein-binding peptides” (priority 2002, published 2003).
Like-named read-outs stand apart in the source and are kept apart here. Where a SMILES comes first, the peptide text is derived from it.

Legend:
[1] = 17- versus 19-allylamino derivative of herbimycin A; cited from earlier work
[2] = system: OVA-peptide pulsed EL4 cells; test: 51Cr release assay with effector cells from immunized mice; type: cell-based, C57BL/6 mice; conditions: mice immunized once or twice; OVA-primed EL-4 target cells
Procedure: Preparation of hsp70 and/or peptide for use in immunization. Approximately 15 μg hsp70 and 12 μg OVA-BiP were mixed, on ice, to a final volume of 10 μL in Buffer Y (to produce a final concentration of 21.5 μM hsp70, 0.5 mM OVA-BiP, 20 mM HEPES pH 7.0, 150 mM KCl, 10 MM (NH4)2SO4, 2 mM MgCl2 and 2 mM MgADP, pH 7.0). The mixture was incubated for 30 minutes at 37° C. and was used for in vivo immunizations. Similar incubations were carried out with (i) 5 μl TiterMax adjuvant (Vaxcell, Norcross, Ga.) and 12 μg OVA-BiP (ii) 5 μl TiterMax and 5 μg OVA peptide or (iii) 12 μg OVA-BiP alone.
Preparation of cells for chromium release assay. […]
Chromium release assay. […] Supernatants were harvested and radioactivitiy released by cytotoxic activity was measured in a gamma counter. The percent specific lysis was calculated as 100×[(cpm release by CTL−cpm spontaneously released)/(cpm maximal release−cpm spontaneously released)]. Maximal release was determined by adding 1% NP-40 to lyse all cells. Spontaneous release of all target in the absence of effector cells (measured in a culture of target cells (in the absence of effector cells) maintained in parallel for the duration of the assay) was less than 20% of the maximal release.

[3] = molecular target: T1, gp96 in the presence of herbimycin A (Mus musculus, UniProt P08113); test: Affinity panning of phage display heptapeptide library on gp96 in the presence of herbimycin A; type: binding; conditions: TWEEN 20
T1 construct: The mouse cDNA encoding mature gp96 (i.e., wherein the endoplasmic reticulum signal peptide has been removed) was incorporated into the pET 11 a expression vector; made in house; host or cells: Escherichia coli BL21 (pET11gp96)
T1 sequence (P08113 22-802): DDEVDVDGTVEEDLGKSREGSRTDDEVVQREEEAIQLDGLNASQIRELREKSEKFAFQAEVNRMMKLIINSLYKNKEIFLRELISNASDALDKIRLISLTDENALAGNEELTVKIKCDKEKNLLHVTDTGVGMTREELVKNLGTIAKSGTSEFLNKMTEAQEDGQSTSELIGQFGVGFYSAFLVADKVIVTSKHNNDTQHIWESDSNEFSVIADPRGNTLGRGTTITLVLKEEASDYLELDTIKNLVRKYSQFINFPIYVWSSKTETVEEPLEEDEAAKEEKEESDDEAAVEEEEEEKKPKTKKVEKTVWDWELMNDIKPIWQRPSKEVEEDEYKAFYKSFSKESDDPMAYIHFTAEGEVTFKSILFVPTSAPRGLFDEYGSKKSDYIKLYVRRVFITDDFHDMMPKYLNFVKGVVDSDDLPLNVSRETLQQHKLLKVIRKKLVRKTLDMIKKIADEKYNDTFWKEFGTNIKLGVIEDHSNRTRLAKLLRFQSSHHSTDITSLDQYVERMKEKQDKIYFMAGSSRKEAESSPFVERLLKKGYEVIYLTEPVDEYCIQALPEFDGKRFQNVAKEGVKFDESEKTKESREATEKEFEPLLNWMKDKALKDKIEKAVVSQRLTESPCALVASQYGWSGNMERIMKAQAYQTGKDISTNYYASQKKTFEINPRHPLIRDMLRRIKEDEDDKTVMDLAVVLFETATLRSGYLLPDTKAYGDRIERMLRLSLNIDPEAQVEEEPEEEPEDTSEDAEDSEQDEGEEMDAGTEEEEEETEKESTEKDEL
Procedure: Preparation of a gp96 expression vector. The mouse cDNA encoding mature gp96 (i.e., wherein the endoplasmic reticulum signal peptide has been removed) was incorporated into the pET 11 a expression vector (Novagen) as follows. Gp96 cDNA insert was prepared by polymerase chain reaction (PCR) of a pRc/CMV clone containing the cDNA using the following oligonucleotide primers: […]
Expression of gp96. pET11gp96 was transformed into BL21 Escherichia coli cells, and plated on LB plates containing ampicillin (50 μg/ml). One of the resulting colonies was used to inoculate a 20 ml overnight culture of 2×TY medium containing ampicillin (150 μg/ml). The following day, the resulting culture was spun down and the harvested bacteria were resuspended in 1 ml of fresh medium. Two one liter cultures were then each inoculated with 0.5 ml of the harvested cells and allowed to grow at 37° C. until the optical density, measured at 600 nm, was 0.5. Then, IPTG was added to a concentration of 1 mM and the cells were cultured for another 3 hours before being harvested by centrifugation. The resulting cell pellet was resuspended in 20 ml of 50 mM HEPES pH 7.5, 50 mM KCl, 5 mM MgAcetate, 20% sucrose and 1 mM PMSF. Cell extracts were prepared by pressure shearing in a French Press. The lysates were then spun at 100,000×g for 1.5 hours and the supernatant, which constituted crude gp96 extract, was collected.
Purification of gp96. The following steps were all performed at 4° C. A 12.5 cm×3.2 cm column of DE52 resin (Whatman) was equilibrated in a solution of 50 mM MOPS pH 7.4, 10 mM NaCl, 5 mM MgAcetate (hereafter, “Buffer A”). The crude gp96 extract was diluted 2-fold and immediately loaded onto the column at a flow rate of 2 ml/min. Elution from the column was achieved using a gradient of a solution of 50 mM MOPS pH 7.4, 1M NaCl, 5 mM MgAcetate (hereafter, “Buffer B”) from 0% to 100% Buffer B over 1000 ml. The elution profile was examined by subjecting fractions collected from the column to SDS-PAGE analysis. Fractions containing gp96 were pooled and diluted 2-fold with cold water, and were immediately run onto the next column (see below).
A 10 cm×1 cm column of hydroxyapatite (BioRad) was washed with 100 ml 0.5 M K2HPO4, 50 mM KCl pH 7.4 and then equilibrated with 10 mM K2HPO4, 50 mM KCl pH 7.4. The pooled diluted fractions from the DE52 column were loaded onto this column at a flow rate of 1 ml/min. The gp96 protein was eluted in a gradient of 10-500 mM K2HPO4 over 800 ml. Fractions containing gp96 were pooled and loaded onto the phenylsepharose column described below.
A 9 cm×3 cm column of phenylsepharose (Pharmacia) was equilibrated with 500 mM NaCl, 50 mM MOPS pH 7.4. The pooled fractions containing gp96 from the hydroxyapatite were loaded onto this column at 1 ml/min and the gp96 was eluted in a gradient of 500-0 mM NaCl over 800 ml. The gp96 containing fractions collected from the column were identified by SDS-PAGE, pooled, and concentrated.
The gp96 was then loaded onto a Hi Load 26/60 Superdex-200 column (Pharmacia) equilibrated with 100 mM NaCl, 5 mM MgAcetate, 50 mM MOPS pH 7.5, 3 ml fractions were collected, and the fractions containing the most pure gp96 (as identified by SDS PAGE using a 12 percent reducing gel) and pooled. To the pooled fractions, glycerol was added to 10% (v/v), and then the fractions were concentrated to 21 mg/ml on a Centricon-50 concentrator (Amicon), frozen using liquid nitrogen, and stored at −80° C.
Affinity panning. The Ph.D. Phage Display Library Kit (New England BioLabs, Beverly, Mass.), was used for affinity panning. For each panning experiment, a well of a 96-well polystyrene microtiter plate (each well having a 6 mm diameter) was filled with 150 μl of a solution of 200 μg/ml of gp96 in 0.1 M NaHCO3 pH 8.3. If herbimycin A was to be included in the experiment, 1 μl of 10 mg/ml herbimycin A (GIBCO) in DMSO was added to each well, corresponding to a 50-fold molar excess relative to gp96. […]

[4] = molecular target: T1, gp96 in the presence of herbimycin A; conditions: expected frequency for comparison with % actual, cited from earlier work
[5] = system: EG7 cells; test: EG7 tumor cell challenge after immunization; type: in vivo, C57BL/6 mice; conditions: peptide alone, without TiterMax or hsp70, eight mice per group
Procedure: C57BL/6 mice, 8-10 weeks old, were immunized intradermally with one of the following (eight mice in each group): (a)5 μl TiterMax and 5 μg OVA peptide; (b) 15 μg hsp70 and 5 μg OVA peptide; (c) 5 μl TiterMax and […] (OVA-BiP); (d) 15 μg hsp70 and 12 μg OVA-BiP; (e) control (four animals only in this group); (f) 5 μg OVA peptide; or (g) 12 μg OVA-BiP. The mice then were injected with 4×10^6 EG7 cells. Tumor size was evaluated over time by measuring two diameters, the greatest diameter and the diameter perpendicular to the greatest diameter, and then calculating the average diameter. The results are shown in FIGS. 8A-G (corresponding to groups a-g, as set forth above).

[6] = Table XII, gp96 and herbimycin A, binding buffer without calcium: 20 mM HEPES pH 7.5, 100 mM KCl, 1 mM DTT, 1 mM MgAcetate, 42 phage-expressed peptides sequenced
[7] = Table XIV, gp96 in the presence of herbimycin A, binding buffer with ATP: 20 mM HEPES pH 7.5, 100 mM KCl, 1 mM CaCl2, 1 mM MgAcetate, 1 mM ATP
[8] = Table XVI, binding buffer with AMP-PNP instead of ATP: 20 mM HEPES pH 7.5, 100 mM KCl, 1 mM CaCl2, 1 mM MgAcetate, 1 mM AMP-PNP

| % actual (amino acid frequency in sequenced gp96-binding phage-expressed heptapeptides) [3, 6] [%] | % actual (amino acid frequency in sequenced gp96-binding phage-expressed heptapeptides) [3, 7] [%] | % actual (amino acid frequency in sequenced gp96-binding phage-expressed heptapeptides) [3, 8] [%] | Compound | % expected (amino acid frequency) ([4]; Table XII) [%] | % expected (amino acid frequency) ([4]; Table XIV) [%] | % expected (amino acid frequency) ([4]; Table XVI) [%] | also measured |
| --- | --- | --- | --- | --- | --- | --- | --- |
| – | – | – | 17-allylamino herbimycin | – | – | – | activity [1]: more active than 19-allylamino herbimycin |
| – | – | – | CC[C@H](C)[C@H](NC(=O)[C@@H](NC(=O)[C@@H](N)CO)[C@@H](C)CC)C(=O)N[C@@H](CC(N)=O)C(=O)N[C@@H](Cc1ccccc1)C(=O)N[C@@H](CCC(=O)O)C(=O)N[C@@H](CCCCN)C(=O)N[C@@H](CC(C)C)C(=O)NCC(=O)N[C@@H](CO)C(=O)NCC(=O)N[C@@H](Cc1c[nH]cn1)C(=O)N[C@@H](Cc1c[nH]c2ccccc12)C(=O)N[C@@H](CC(=O)O)C(=O)N[C@@H](Cc1ccccc1)C(=O)N[C@@H](C)C(=O)N[C@@H](Cc1c[nH]c2ccccc12)C(=O)N1CCC[C@H]1C(=O)N[C@@H](Cc1c[nH]c2ccccc12)C(=O)O [OVA-BiP] (H-SIINFEKLGSGHWDFAWPW-OH) | – | – | – | OVA-specific cytotoxic immune response [2]: significant anti-OVA immune response |
| 4.76 | 7.1 | 4.28 | N[C@@H](Cc1ccc(O)cc1)C(=O)O [Tyr] | 2.9 | 2.9 | 2.9 | – |
| 4.08 | 5.3 | 8.5 | CC(C)[C@H](N)C(=O)O [Val] | 4.3 | 4.3 | 4.3 | – |
| – | – | – | Ser Ile Ile Asn Phe Glu Lys Leu (SIINFEKL; printed: Ser Ile Ile Asn Phe Glu Lys Leu) [OVA peptide] | – | – | – | tumor-free animals [5]: no animals were tumor-free |
